Experimental data as given in US8846653B2, “Delta-tocotrienol treatment and prevention of pancreatic cancer” (University of South Florida, priority 2006, dated 2014).

Legend:
[1] = system: HPDE 6C7 cells; assay: Proliferation by MTT, increasing concentrations of δ-tocotrienol; type: cell-based, human; conditions: HPDE 6C7, 24 hours, even at the highest concentrations
Method: (§1) MIA PaCa2, SW1990, BXPC3, and HPDE 6C7 cells (3×10^3) were cultured as described in the Examples above, in 96-well plates and treated the following day with increasing concentrations of δ-tocotrienol.

[2] = system: p27^kip1 luciferase reporter; assay: p27^kip1 luciferase reporter assay; type: cell-based, human; conditions: Mia PaCa2, 20 μM, 24 hours
Method: The mechanism by which δ-tocotrienol upregulates p27^kip1 protein expression was investigated using a luciferase reporter assay. Mia PaCa2 cells transfected with a p27^kip1 luciferase reporter (Wang, et al. Activation of p27Kip1 Expression by E2F1. A negative feedback mechanism. J Biol. Chem. 2005 Apr. 1; 280(13):12339-43. Epub 2005 Feb. 14) were treated with either δ-tocotrienol (20 μM) or vehicle for 24 hours and luciferase activity was then measured using a luminometer.

[3] = system: BXPC3 cells; assay: Proliferation by MTT, increasing concentrations of δ-tocotrienol; type: cell-based, human; conditions: BXPC3, at 24 hours; read-out: IC50 (inhibition of proliferation, MTT)
Method: FIG. 24 is a graph wherein BXPC3 pancreatic cancer cells (3×10^3) were plated in 96 well plates and treated the following day with δ-tocotrienol. Proliferation was assessed by MTT at 24 hour intervals. […] HPDE 6C7 cells were also treated with increasing concentrations of δ-tocotrienol for 24 hours.
as §1

[4] = system: BXPC3 cells; assay: Cell cycle phase by propidium iodide flow cytometry; type: cell-based, human; conditions: BXPC3, 20 μM, 24 hours
Method: (§2) MIA PaCa2, SW 1990, BXPC3 and HPDE 6C7 cells were treated with either 8-tocotrienol 20 μM or vehicle for 24 hours. Cells were harvested, washed twice in PBS, and fixed in ethanol overnight. Pellets were washed the following day in PBS, stained with propidium iodide, and analyzed by flow cytometry for cell cycle phase. […] Important regulators of the G1 cell cycle phase include members of the cyclin kinase inhibitor family. One of these members, p27^kip1, appears to be important in the progression of pancreatic cancer.

[5] = system: HPDE 6C7 cells; assay: as above; type: cell-based, human; conditions: HPDE 6C7, 20 μM, 24 hours
Method: as §2

[6] = system: MiaPaCa-2 cells; assay: Annexin V-FITC staining, flow cytometry for apoptosis; type: cell-based, human; conditions: MiaPaCa-2, varying concentrations, 24 hours
Method: FIG. 3 is a graph wherein MIA PaCa-2 pancreatic cancer cells were treated with in varying concentrations of δ-tocotrienol or vehicle for 24 hours. Cells were collected and stained with Annexin V-FITC and analyzed by flow cytometry for apoptosis.
(§3) MiaPaCa2 and HPDE 6C7 cells were cultured, as discussed above, and treated with δ-tocotrienol or vehicle. […] MiaPaCa-2, BxPc-3, and SW1990 pancreatic cancer cells were treated with in varying concentrations of δ-tocotrienol or vehicle for 24 hours. The cells were then harvested for annexin V-FITC staining and analyzed by flow cytometry.

[7] = system: SW1990 cells; assay: as above; type: cell-based, human; conditions: SW1990, varying concentrations, 24 hours
Method: FIG. 5 is a graph wherein SW1990 pancreatic cancer cells were treated with in varying concentrations of δ-tocotrienol or vehicle for 24 hours. Cells were collected and stained with Annexin V-FITC and analyzed by flow cytometry for apoptosis.
as §3

[8] = system: MIA PaCa-2 cells; assay: Trypan blue cell death, δ-tocotrienol, 5-FU or combination, 24 hours; type: cell-based, human; conditions: MIA PaCa-2, 50 μM each
Method: MIA PaCa-2 cells were treated vehicle or an anti-proliferative treatment comprising 50 μM δ-tocotrienol, 50 μM 5-FU, or 50 μM δ-tocotrienol and 50 μM 5-FU for 24 hours. Cells were harvested, fixed, permeablized and stained with trypan blue.

[9] = system: p-cRaf, p-MEK, and p-ERK; assay: Immunoblot of downstream phosphorylated targets of oncogenic Ras; type: cell-based, human; conditions: pancreatic cancer cell lines, 20 μM
Method: The Ras effector pathways Raf-MEK-ERK and PI3 kinase-AKT are important for cell proliferation and survival, respectively. Pancreatic cancer cell lines (MIA PaCa2, SW1990, BXPC3) and HPDE 6C7 cells were treated with 8-tocotrienol (20 μM) and cell lysates were collected and prepared at progressive time intervals as described above. Proteins from lysates were run by SDS PAGE and immunoblotted with the following antibodies: Ras, p-cRaf (ser 338), p-MEK1/2, MEK1/2, pERK 44/42, ERK 44/42 (Cell Signaling) and c-Raf (BD Transduction Laboratories). […] The MIA PaCa2 and SW1990 cells were then tested for AKT inhibition. The cells were treated with δ-tocotrienol (20 μM) for 24 and 48 hours and cell lysates were run by SDS-PAGE and immunoblotted for p-AKT and AKT (Cell Signaling). […] Taken together, the inhibition of downstream effectors of oncogenic Ras signaling by δ-tocotrienol without an effect on Ras protein levels may indicate a negative regulatory role of 8-tocotrienol on the function of oncogenic Ras. The pancreatic ductal epithelial cell proliferative inhibition by δ-tocotrienol was tested to see if it occurs through blocking aberrant signal transduction cascades. […]

[10] = system: pancreatic cancer metastasis; assay: Pancreatic cancer metastasis in vivo (luminescence); set-up: species or system mouse
Text: Images show comparison of vehicle vs. 100 MPK
The apoptotic effect of delta-tocotrienol was selective for neoplastic cells as normal pancreatic cells and in vitro immortalized human pancreatic ductal epithelial cells were not sensitive to delta-tocotrienol.

For `CC(C)=CCC/C(C)=C/CC/C(C)=C/CC[C@]1(C)CCc2cc(O)cc(C)c2O1` [T3 delta, delta tocotrienol], the antiproliferative effect [1] was “relatively resistant”, the “luciferase activity (p27^kip1 reporter)” value [2] was “increase in luciferase activity” and the IC50 [3] was 20 to 25 µM. The cell cycle phase [4] was “significant G1 cell cycle arrest”, the cell cycle phase [5] was “no effect on cell cycle phase” and the “induction of apoptosis (annexin V-FITC)” value [6] was “dose dependent induction of apoptosis”. The “induction of apoptosis (annexin V-FITC)” value [7] was “dose dependent induction of apoptosis”, the “cell death (Trypan Blue)” value [8] was “significantly more than 5-FU alone” and the “downstream phosphorylated targets of oncogenic Ras p-cRaf, p-MEK, p-ERK” value [9] was “selectively inhibited”. The “tumor response at the highest dose” value ([10]; highest dose, compared to vehicle/PBS) was “tumor regression” and the pancreatic cancer metastasis ([10]; in vivo, vs vehicle/PBS) was “inhibits pancreatic cancer metastasis”.
